# Test results taken from the NIST ThermoML archive (doi:10.1021/acs.jced.5b00021).
# ± gives the expanded uncertainty stated by the source.
# Assay: molar heat capacity at constant pressure
# Conditions: 101.33 kPa, Crystal, Small sample (50 mg) DSC
Compound,molar heat capacity at constant pressure (283 K) [J/K/mol],molar heat capacity at constant pressure (293 K) [J/K/mol],molar heat capacity at constant pressure (298 K) [J/K/mol],molar heat capacity at constant pressure (303 K) [J/K/mol],molar heat capacity at constant pressure (313 K) [J/K/mol],molar heat capacity at constant pressure (323 K) [J/K/mol],molar heat capacity at constant pressure (333 K) [J/K/mol],molar heat capacity at constant pressure (343 K) [J/K/mol],molar heat capacity at constant pressure (353 K) [J/K/mol]
"NC(N)=C([N+](=O)[O-])[N+](=O)[O-] [1,1-diamino-2,2-dinitroethene]",169.55 ± 3.4,174.14 ± 3.6,176.51 ± 3.6,178.73 ± 3.6,183.32 ± 3.7,187.91 ± 3.7,192.5 ± 3.9,197.09 ± 4,201.68 ± 4
"O=[N+]([O-])C(=C1NCCCN1)[N+](=O)[O-] [2-(dinitromethylene)-1,3-diazacyclohexane]",200.18 ± 4,205.26 ± 4.1,207.71 ± 4.1,210.16 ± 4.1,215.05 ± 4.3,220.13 ± 4.3,225.02 ± 4.5,230.1 ± 4.5,234.99 ± 4.7
"O=[N+]([O-])C(=C1NCCCCN1)[N+](=O)[O-] [2-(dinitromethylene)-1,3-diazacycloheptane]",204.6 ± 4,211.67 ± 4.2,215.31 ± 4.2,218.75 ± 4.4,226.03 ± 4.4,233.1 ± 4.6,240.18 ± 4.9,247.25 ± 4.9,254.33 ± 5.1
"O=[N+]([O-])C(=C1NCCN1)[N+](=O)[O-] [2-(dinitromethylene)-1,3-diazacyclopentane]",197.45 ± 4,202.67 ± 4,205.28 ± 4.2,207.89 ± 4.2,213.29 ± 4.4,218.52 ± 4.4,223.74 ± 4.5,229.14 ± 4.5,234.36 ± 4.7
CC1CNC(=C([N+](=O)[O-])[N+](=O)[O-])N1 (stereo not given) [2-(dinitromethylene)-4-methylimidazolidine],209.78 ± 4.1,215.8 ± 4.3,218.81 ± 4.3,221.82 ± 4.5,227.84 ± 4.5,233.86 ± 4.7,239.88 ± 4.9,245.9 ± 4.9,251.92 ± 5.1
